Reference: ChEMBL document CHEMBL6127017, “Regulation of exercise ability and glycolipid metabolism by synthetic SR9009 analogues as new REV-ERB-α agonists” (Bioorg Med Chem, 2024)

Experiments:
HEK293 = experiment: Agonist activity at Flag-tagged REV-ERBalpha (unknown origin) expressed in HEK293 cells co-expressing BMAL1 (unknown origin) assessed as relative strength index by measuring ratio of inhibitory rate of BMAL1 incubated for 24 hrs by Dual Glo-Luciferase assay relative to SR9009; format: cell-based; conditions: Homo sapiens
Mus musculus [1] = experiment: Effect on exercise tolerance in high-fat diet-induced obese C57BL/6 mouse assessed as total running time at 200 mg/kg, IG for 7 days (reference value: 2954.50 sec); format: functional; conditions: time 7 day
Mus musculus [2] = experiment: Effect on exercise tolerance in high-fat diet-induced obese C57BL/6 mouse assessed as total running distance at 200 mg/kg, IG for 7 days; format: functional; conditions: time 7 day
[3] = Agonist activity at Flag-tagged REV-ERBalpha (unknown origin) expressed in HEK293 cells co-expressing BMAL1 (unknown origin) inhibition of BMAL1 incubated for 24 hrs by Dual Glo-Luciferase assay; format: cell-based; conditions: Homo sapiens, HEK293, 24 h
[4] = Cytotoxicity against MDCK cells; format: toxicity, cell-based, Canis lupus familiaris; conditions: dog, read-out: TC50 (the source's name)
[5] = Metabolic stability in human liver microsomes assessed as compound remaining at 1 uM measured after 60 mins by LC-MS/MS analysis; format: ADME, Microsome; conditions: read-out: Stability
[6] = Metabolic stability in human liver microsomes assessed as compound remaining at 1 uM measured immediately by LC-MS/MS analysis; format: ADME, Microsome; conditions: read-out: Stability
[7] = Metabolic stability in human liver microsomes assessed as half life at 1 uM incubated upto 60 mins by LC-MS/MS analysis; format: ADME, Microsome
Mus musculus [8] = experiment: Effect on blood lipid level in high-fat diet-induced obese C57BL/6 mouse assessed as total cholesterol level at 200 mg/kg, IG for 7 days (reference value: 4.69 mmol/L); format: functional; conditions: time 7 day
Mus musculus [9] = experiment: Effect on exercise tolerance in normal diet-fed C57BL/6 mouse assessed as total running time at 200 mg/kg, IG for 3 days (reference value: 7002.00 sec); format: functional; conditions: time 3 day
[10] = Metabolic stability in human liver microsomes assessed as compound remaining at 1 uM measured after 15 mins in presence of NADPH/UDPGA by LC-MS/MS analysis; format: ADME, Microsome; conditions: read-out: Stability
Mus musculus [11] = experiment: Effect on blood lipid level in high-fat diet-induced obese C57BL/6 mouse assessed as decrease in blood glucose level at 200 mg/kg, IG for 7 days (reference value: 10.77 mmol/L); format: functional; conditions: time 7 day
[12] = Metabolic stability in human liver microsomes assessed as intrinsic clearance at 1 uM incubated upto 60 mins by LC-MS/MS analysis; format: ADME, Microsome; conditions: read-out: CLH
[13] = Metabolic stability in human liver microsomes assessed as compound remaining at 1 uM measured after 45 mins by LC-MS/MS analysis; format: ADME, Microsome; conditions: read-out: Stability
[14] = Metabolic stability in human liver microsomes assessed as compound remaining at 1 uM measured after 30 mins by LC-MS/MS analysis; format: ADME, Microsome; conditions: read-out: Stability
Mus musculus [15] = experiment: Effect on blood lipid level in high-fat diet-induced obese C57BL/6 mouse assessed as triglyceride level at 200 mg/kg, IG for 7 days (reference value: 2.07 mmol/L); format: functional; conditions: time 7 day
[16] = Metabolic stability in human liver microsomes assessed as hepatic extraction ratio at 1 uM incubated upto 60 mins by LC-MS/MS analysis; format: ADME, Microsome; conditions: read-out: ERH
[17] = Metabolic stability in human liver microsomes assessed as compound remaining at 1 uM measured after 15 mins by LC-MS/MS analysis; format: ADME, Microsome; conditions: read-out: Stability
[18] = Metabolic stability in human liver microsomes assessed as compound remaining at 1 uM measured after 45 mins in presence of NADPH/UDPGA by LC-MS/MS analysis; format: ADME, Microsome; conditions: read-out: Stability
[19] = Metabolic stability in human liver microsomes assessed as compound remaining at 1 uM measured immediately in presence of NADPH/UDPGA by LC-MS/MS analysis; format: ADME, Microsome; conditions: read-out: Stability
[20] = Metabolic stability in human liver microsomes assessed as compound remaining at 1 uM measured after 60 mins in presence of NADPH/UDPGA by LC-MS/MS analysis; format: ADME, Microsome; conditions: read-out: Stability
[21] = Metabolic stability in human liver microsomes assessed as compound remaining at 1 uM measured after 30 mins in presence of NADPH/UDPGA by LC-MS/MS analysis; format: ADME, Microsome; conditions: read-out: Stability
Mus musculus [22] = experiment: Effect on exercise tolerance in normal diet-fed C57BL/6 mouse assessed as total running distance at 200 mg/kg, IG for 3 days (reference value: 2183.20 meter); format: functional; conditions: time 3 day

SMILES: O=C(c1ccc(Br)o1)N1CCC(CN(Cc2ccc(Cl)cc2)Cc2ccc([N+](=O)[O-])s2)C1 (stereo not drawn)
- Ratio (HEK293; filed as agonist): 120%
- Time (Mus musculus [1]): 4130 s
- Activity (Mus musculus [2]): 797.96 m
- EC50 [3]: 8.29 µM

SMILES: O=C(Cc1cccs1)N1CCC(CN(Cc2ccc(Cl)cc2)Cc2ccc([N+](=O)[O-])s2)C1 (stereo not drawn)
- Ratio (HEK293; filed as agonist): 121%
- Time (Mus musculus [1]): 3726.88 s
- Activity (Mus musculus [2]): 686.85 m
- EC50 [3]: 8.88 µM

SMILES: CC(F)C(=O)N1CCC(CN(Cc2ccc(Cl)cc2)Cc2ccc([N+](=O)[O-])s2)C1 (stereo not drawn)
- Ratio (HEK293; filed as agonist): 85.4%

SMILES: O=C(C1CC1)N1CCC(CN(Cc2cc(Cl)cc(Cl)c2)Cc2ccc([N+](=O)[O-])s2)C1 (stereo not drawn)
- Ratio (HEK293; filed as agonist): 64.7%
- CC50 [4]: 12.8 µM

SMILES: O=C(NS(=O)(=O)N1CCC(CN(Cc2ccc(Cl)cc2)Cc2ccc([N+](=O)[O-])s2)C1)OCC1CC1 (stereo not drawn)
- Ratio (HEK293; filed as agonist): 63%

SMILES: O=C(CC1CC1)N1CCC(CN(Cc2ccc(Cl)cc2)Cc2ccc([N+](=O)[O-])s2)C1 (stereo not drawn)
- Ratio (HEK293; filed as agonist): 73.2%

SMILES: C=CC(=O)N1CCC(CN(Cc2ccc(F)cc2)Cc2ccc([N+](=O)[O-])s2)C1 (stereo not drawn)
- Ratio (HEK293; filed as agonist): 61.2%

SMILES: O=C(C1CC1)N1CCC(CN(Cc2ccc(Cl)c(Cl)c2)Cc2ccc([N+](=O)[O-])s2)C1 (stereo not drawn)
- remaining at 1 h, 1 µM [5]: 90.1%
- remaining at 0 min, 1 µM [6]: 100%
- Ratio (HEK293; filed as agonist): 84.8%
- half-life at 1 µM [7]: 3.37 min
- Activity (Mus musculus [8]): 4.5 mmol/L
- Time (Mus musculus [9]): 10034.25 s
- Time (Mus musculus [1]): 5011.38 s
- remaining at 0.25 h, 1 µM [10]: 4.6%
- Activity (Mus musculus [11]): 6.82 mmol/L
- microsomal CLint at 1 µM [12]: 411 µL/min/mg
- remaining at 0.75 h, 1 µM [13]: 93.3%
- remaining at 0.5 h, 1 µM [14]: 108%
- Activity (Mus musculus [15]): 1.12 mmol/L
- hepatic extraction ratio at 1 h, 1 µM [16]: 0.96
- Activity (Mus musculus [2]): 1061.4 m
- remaining at 0.25 h, 1 µM [17]: 93.2%
- remaining at 0.75 h, 1 µM [18]: 0.3%
- EC50 [3]: 5.99 µM
- remaining at 0 min, 1 µM [19]: 100%
- remaining at 1 h, 1 µM [20]: 0.15%
- remaining at 0.5 h, 1 µM [21]: 0.91%
- CC50 [4]: 10.7 µM
- Activity (Mus musculus [22]): 3115.39 m

SMILES: O=C(C1CC1)N1CCC(CN(Cc2ccc([N+](=O)[O-])s2)Cc2ccc(F)cc2Cl)C1 (stereo not drawn)
- Ratio (HEK293; filed as agonist): 89.4%
- EC50 [3]: 8.31 µM
- CC50 [4]: 38.5 µM

SMILES: O=C(c1ccco1)N1CCC(CN(Cc2ccc(Cl)cc2)Cc2ccc([N+](=O)[O-])s2)C1 (stereo not drawn)
- Ratio (HEK293; filed as agonist): 126%
- Time (Mus musculus [1]): 4165.38 s
- Activity (Mus musculus [2]): 836.67 m
- EC50 [3]: 7.15 µM

SMILES: O=C(C1CC1)N1CCC(CN(Cc2ccc(Cl)cc2)Cc2ccc([N+](=O)[O-])s2)C1 (stereo not drawn)
- Ratio (HEK293; filed as agonist): 55%

SMILES: O=C(C1CC1)N1CCC(CN(Cc2ccc([N+](=O)[O-])s2)Cc2c(F)cccc2Cl)C1 (stereo not drawn)
- Ratio (HEK293): 30.2%

SMILES: COc1cccc(CN(Cc2ccc([N+](=O)[O-])s2)CC2CCN(C(=O)C3CC3)C2)c1 (stereo not drawn)
- Ratio (HEK293; filed as agonist): 64.5%
- CC50 [4]: 15.4 µM

SMILES: O=C(C1CC1)N1CCC(CN(Cc2ccc3c(c2)OCO3)Cc2ccc([N+](=O)[O-])s2)C1 (stereo not drawn)
- Ratio (HEK293; filed as agonist): 70.7%
- CC50 [4]: 15.4 µM

SMILES: CC1CCC(N(Cc2ccc([N+](=O)[O-])s2)CC2CCN(C(=O)OC(C)(C)C)C2)CC1 (stereo not drawn)
- Ratio (HEK293): 26.8%

SMILES: O=C(C1CC1)N1CCC(CN(Cc2cccc(Cl)c2)Cc2ccc([N+](=O)[O-])s2)C1 (stereo not drawn)
- Ratio (HEK293; filed as agonist): 51%
- CC50 [4]: 22.2 µM

SMILES: O=C(C1CC1)N1CCC(CN(Cc2ccc([N+](=O)[O-])s2)Cc2ccc(F)cc2F)C1 (stereo not drawn)
- remaining at 1 h, 1 µM [5]: 108%
- remaining at 0 min, 1 µM [6]: 100%
- Ratio (HEK293; filed as agonist): 98.2%
- half-life at 1 µM [7]: 2.3 min
- Activity (Mus musculus [8]): 3.83 mmol/L
- Time (Mus musculus [9]): 9087.88 s
- Time (Mus musculus [1]): 5805 s
- remaining at 0.25 h, 1 µM [10]: 1.1%
- Activity (Mus musculus [11]): 6.79 mmol/L
- microsomal CLint at 1 µM [12]: 601 µL/min/mg
- remaining at 0.75 h, 1 µM [13]: 105%
- remaining at 0.5 h, 1 µM [14]: 103%
- Activity (Mus musculus [15]): 1.04 mmol/L
- hepatic extraction ratio at 1 h, 1 µM [16]: 0.97
- Activity (Mus musculus [2]): 1042.52 m
- remaining at 0.25 h, 1 µM [17]: 106%
- remaining at 0.75 h, 1 µM [18]: 0.16%
- EC50 [3]: 4.93 µM
- remaining at 0 min, 1 µM [19]: 100%
- remaining at 1 h, 1 µM [20]: 0.07%
- remaining at 0.5 h, 1 µM [21]: 0.23%
- CC50 [4]: 38.5 µM
- Activity (Mus musculus [22]): 2843.74 m

SMILES: C=CC(=O)N1CCC(CN(Cc2ccc(Cl)cc2)Cc2ccc([N+](=O)[O-])s2)C1 (stereo not drawn)
- Ratio (HEK293; filed as agonist): 125%
- Time (Mus musculus [1]): 4516.75 s
- Activity (Mus musculus [2]): 910.9 m
- EC50 [3]: 8.65 µM

SMILES: O=C(C1CC1)N1CCC(CN(Cc2cccc(Br)c2)Cc2ccc([N+](=O)[O-])s2)C1 (stereo not drawn)
- Ratio (HEK293; filed as agonist): 89.8%
- CC50 [4]: 15.4 µM

SMILES: O=C(NS(=O)(=O)N1CCC(CN(Cc2ccc(Cl)cc2)Cc2ccc([N+](=O)[O-])s2)C1)OCC1CCCC1 (stereo not drawn)
- Ratio (HEK293): 34.3%

SMILES: COc1ccccc1CN(Cc1ccc([N+](=O)[O-])s1)CC1CCN(C(=O)C2CC2)C1 (stereo not drawn)
- Ratio (HEK293): 5.77%
- CC50 [4]: 38.5 µM

SMILES: O=C(C1CCC1)N1CCC(CN(Cc2ccc(Cl)cc2)Cc2ccc([N+](=O)[O-])s2)C1 (stereo not drawn)
- Ratio (HEK293; filed as agonist): 116%
- Time (Mus musculus [1]): 3159 s
- Activity (Mus musculus [2]): 572.8 m
- EC50 [3]: 9.21 µM

SMILES: COc1ccc(CN(Cc2ccc([N+](=O)[O-])s2)CC2CCN(C(=O)C3CC3)C2)cc1OC (stereo not drawn)
- Ratio (HEK293; filed as agonist): 43.4%
- CC50 [4]: 32 µM

SMILES: CCOC(=O)N1CCC(CN(Cc2ccc(Cl)cc2)Cc2ccc([N+](=O)[O-])s2)C1 (stereo not drawn) [SR9009]
- remaining at 1 h, 1 µM [5]: 103%
- remaining at 0 min, 1 µM [6]: 100%
- half-life at 1 µM [7]: 2.23 min
- Activity (Mus musculus [8]): 4.03 mmol/L
- Time (Mus musculus [9]): 9908.5 s
- Time (Mus musculus [1]): 5428.38 s
- remaining at 0.25 h, 1 µM [10]: 0.94%
- Activity (Mus musculus [11]): 9.46 mmol/L
- microsomal CLint at 1 µM [12]: 622 µL/min/mg
- remaining at 0.75 h, 1 µM [13]: 85.6%
- remaining at 0.5 h, 1 µM [14]: 98.5%
- Activity (Mus musculus [15]): 1.07 mmol/L
- hepatic extraction ratio at 1 h, 1 µM [16]: 0.97
- Activity (Mus musculus [2]): 1177.69 m
- remaining at 0.25 h, 1 µM [17]: 85.6%
- remaining at 0.75 h, 1 µM [18]: 0.08%
- EC50 [3]: 8.57 µM
- remaining at 0 min, 1 µM [19]: 100%
- remaining at 1 h, 1 µM [20]: 0.06%
- remaining at 0.5 h, 1 µM [21]: 0.04%
- CC50 [4]: 38.5 µM
- Activity (Mus musculus [22]): 3121.42 m
